The molecules below were run on STAT1 (phosphorylated at Tyr701) in NCI-H1373 cells (assay: Phospho-STAT1 (Tyr701) LANCE Ultra TR-FRET detection assay in NCI-H1373 cells). Details: Homo sapiens, NCI-H1373, 48 h, 48 hours incubation, induction of pSTAT1, normalized to 10 uM positive control and DMSO, 4-parameter fit, read-out: NH1373 pSTAT1 EC50.
Type: cell-based
Protocol: Phospho-STAT1 (Tyr701 LANCE Ultra TR-FRET Detection Assay
LANCE Ultra phospho-STAT1 (Tyr701) kits are designed for the detection of phosphorylated STAT1 in cell lysates using a simple, homogeneous LANCE Ultra sandwich assay (Cat. #TRF4028M). This assay is intended for assessing compound induction of endogenous levels of cellular STAT1 (phosphorylated at Tyr701) in NCI-H1373 cells. The NCI-H1373 cells are cultured in RPMI 1640 media containing 10% heat inactivated FBS, GlutaMAX, 1% Penicillin-Streptomycin. An Echo acoustic liquid handler is used to transfer 60 nanoliters of compound dilutions using the Echo Qualified, 384-well polypropylene microplate clear flat bottom source plates into a Greiner (#781080) cell culture microplate. NCI-H1373 cells are seeded into these compound-spotted culture plates at 30,000 cells/well in a 60 uL volume in growth media. The plates are incubated in a 5% CO2 humidified incubator at 37° C. for 48 hours. […] Briefly, […] of supplemented lysis buffer is added to each well and allowed to shake for 1 hour at 400 rpm. Next, 5 ul of remixed antibody solutions (vol/vol) prepared in detection buffer are added to each well and allowed to incubate at room temperature overnight. After spinning the plate down at 300 rpm for 1 min, the plate is read on an EnVision plate reader set up for Eu^3+ Cryptate and fluorescence emission is measured at two different wavelengths (665 nm and 620 nm). The HTRF ratio is then calculated ([…]) for each well to determine the amount of pSTAT1 in the cell lysate, and the data is then normalized to 10 uM (S)-5-((1-(3-oxo-3-(4-(5-(trifluoromethyl)pyrimidin-2-yl)piperazin-1-yl)propoxy)propan-2-yl)amino)-4-(trifluoromethyl)pyridazin-3(2H)-one positive and DMSO negative controls. The values were then plotted as a function of compound concentration and a 4-parameter fit was applied to derive the EC50 values.

Row | Compound | EC50 [nM]
1 | C[C@@H](C[C@@H](F)Cn1ccc2cc(-c3ncc(C(F)(F)CO)cn3)c(F)cc2c1=O)Nc1cn[nH]c(=O)c1C(F)(F)F [Example 85] | 4.39
2 | C[C@@H](C[C@@H](F)Cn1ccc2cc(-c3ncc([C@@](C)(O)C(F)F)cn3)c(F)cc2c1=O)Nc1cn[nH]c(=O)c1C(F)(F)F [Example 86] | 10.1
3 | C[C@@H](C[C@@H](F)Cn1ccc2cc(-c3ncc([C@](C)(O)C(F)F)cn3)c(F)cc2c1=O)Nc1cn[nH]c(=O)c1C(F)(F)F [Example 87] | 5.36
4 | C[C@@H](C[C@@H](F)Cn1ccc2cc(-c3ncc(C(C)(C)C)cn3)c(F)cc2c1=O)Nc1cn[nH]c(=O)c1C(F)(F)F [Example 88] | 1.29
5 | C[C@@H](C[C@@H](F)Cn1ccc2cc(-c3ncc4c(n3)NC(=O)C4(C)C)c(F)cc2c1=O)Nc1cn[nH]c(=O)c1C(F)(F)F [Example 89] | 12
6 | C[C@@H](C[C@@H](F)Cn1ccc2cc(-c3ncc4c(n3)COC4(C)C)c(F)cc2c1=O)Nc1cn[nH]c(=O)c1C(F)(F)F [Example 90] | 4.33
7 | C[C@@H](C[C@@H](F)Cn1ccc2cc(-c3cc4c(cn3)C(F)(F)CC4)c(F)cc2c1=O)Nc1cn[nH]c(=O)c1C(F)(F)F [Example 91] | 1.69
8 | C[C@@H](C[C@@H](F)Cn1ccc2cc(-c3ncc([C@@H](F)CF)cn3)c(F)cc2c1=O)Nc1cn[nH]c(=O)c1C(F)(F)F [Example 92] | 1.89
9 | C[C@@H](C[C@@H](F)Cn1ccc2cc(-c3ncc([C@H](F)CF)cn3)c(F)cc2c1=O)Nc1cn[nH]c(=O)c1C(F)(F)F [Example 93] | 1000
10 | C[C@@H](C[C@@H](F)Cn1ccc2cc(-c3ncc(C(F)CF)cn3)c(F)cc2c1=O)Nc1cn[nH]c(=O)c1C(F)(F)F (stereo partly drawn) [Example 94] | 4.58
11 | C[C@@H](C[C@@H](F)Cn1ccc2cc(-c3ncc(C4CC4)cn3)c(F)cc2c1=O)Nc1cn[nH]c(=O)c1C(F)(F)F [Example 95] | 1.36
12 | C[C@@H](C[C@@H](F)Cn1ccc2cc(-c3ncc(C(C)(C)F)cn3)c(F)cc2c1=O)Nc1cn[nH]c(=O)c1C(F)(F)F [Example 96] | 1.61
13 | C[C@@H](C[C@@H](F)Cn1ccc2cc(-c3ncc(OC(F)F)cn3)c(F)cc2c1=O)Nc1cn[nH]c(=O)c1C(F)(F)F [Example 97] | 0.97
14 | C[C@@H](C[C@@H](F)Cn1ccc2cc(-c3ncc(C(C)(F)F)cn3)c(F)c(F)c2c1=O)Nc1cn[nH]c(=O)c1C(F)(F)F [Example 98] | 0.97
15 | COc1cnc(-c2cc3ccn(C[C@H](F)C[C@H](C)Nc4cn[nH]c(=O)c4C(F)(F)F)c(=O)c3c(F)c2F)nc1 [Example 99] | 1.06
16 | C[C@@H](C[C@@H](F)Cn1ccc2cc(-c3ncc(C(F)F)cn3)c(F)c(F)c2c1=O)Nc1cn[nH]c(=O)c1C(F)(F)F [Example 100] | 1.05
17 | C[C@@H](C[C@@H](F)Cn1ccc2cc(-c3ncc(C(F)F)c(N)n3)c(F)c(F)c2c1=O)Nc1cn[nH]c(=O)c1C(F)(F)F [Example 101] | 4.36
18 | C[C@@H](C[C@@H](F)Cn1ccc2cc(-c3ncco3)c(F)cc2c1=O)Nc1cn[nH]c(=O)c1C(F)(F)F [Example 102] | 170
19 | C[C@@H](C[C@@H](F)Cn1ccc2cc(-c3nccs3)c(F)cc2c1=O)Nc1cn[nH]c(=O)c1C(F)(F)F [Example 103] | 138
20 | C[C@@H](C[C@@H](F)Cn1ccc2cc(-c3cnccn3)c(F)cc2c1=O)Nc1cn[nH]c(=O)c1C(F)(F)F [Example 104] | 36.4
21 | C[C@@H](C[C@@H](F)Cn1cnc2cc(-c3ncc(C(C)(F)F)cn3)c(F)cc2c1=O)Nc1cn[nH]c(=O)c1C(F)(F)F [Example 107] | 2.52

Row | Compound | EC50 [nM]
22 | C[C@@H](C[C@@H](F)Cn1ccc2cc(-c3ncc(F)cn3)c(F)cc2c1=O)Nc1cn[nH]c(=O)c1C(F)(F)F [Example 108] | 2.9
23 | C[C@@H](C[C@@H](F)Cn1ccc2cc(-c3ncccn3)c(F)cc2c1=O)Nc1cn[nH]c(=O)c1C(F)(F)F [Example 109] | 5.63
24 | Cc1cnc(-c2cc3ccn(C[C@H](F)C[C@H](C)Nc4cn[nH]c(=O)c4C(F)(F)F)c(=O)c3cc2F)nc1 [Example 110] | 1.11
25 | CC(O)c1cnc(-c2cc3ccn(C[C@H](F)C[C@H](C)Nc4cn[nH]c(=O)c4C(F)(F)F)c(=O)c3cc2F)nc1 (stereo partly drawn) [Example 111] | 4.64
26 | C[C@@H](C[C@@H](F)Cn1ccc2cc(-c3ncc4c(n3)NCCO4)c(F)cc2c1=O)Nc1cn[nH]c(=O)c1C(F)(F)F [Example 113] | 1.94
27 | [2H]C([2H])([2H])Oc1cnc(-c2cc3ncn(C[C@H](F)C[C@H](C)Nc4cn[nH]c(=O)c4C(F)(F)F)c(=O)c3cc2F)nc1 [Example 115] | 7.27
28 | CC(C[C@H](C)Nc1cn[nH]c(=O)c1C(F)(F)F)Cn1ccc2cc(-c3ncc(C(F)(F)F)cn3)c(F)cc2c1=O (stereo partly drawn) [Example 116, 7-fluoro-2-((4S)-2-methyl-4-((6-oxo-5-(trifluoromethyl)-1,6-dihydropyridazin-4-yl)amino)pentyl)-6-(5-(trifluoromethyl)pyrimidin-2-yl)isoquinolin-1(2H)-one] | 89.9
29 | C[C@@H](C[C@@H](F)CN1Cc2cc(-c3ncc(C(F)(F)F)cn3)c(F)cc2C1=O)Nc1cn[nH]c(=O)c1C(F)(F)F [Example 117, 6-fluoro-2-[(2R,4S)-2-fluoro-4-[[6-oxo-5-(trifluoromethyl)-1H-pyridazin-4-yl]amino]pentyl]-5-[5-(trifluoromethyl)pyrimidin-2-yl]isoindolin-1-one] | 11.8
30 | CC[C@@H](C[C@@H](F)Cn1ccc2cc(-c3ncc(C(F)(F)F)cn3)c(F)cc2c1=O)Nc1cn[nH]c(=O)c1C(F)(F)F [Example 118, 7-fluoro-2-((2R,4S)-2-fluoro-4-((6-oxo-5-(trifluoromethyl)-1,6-dihydropyridazin-4-yl)amino)hexyl)-6-(5-(trifluoromethyl)pyrimidin-2-yl)isoquinolin-1(2H)-one] | 2.18
31 | O=c1[nH]ncc(O[C@@H](CCCn2ccc3cc(-c4ncc(C(F)(F)F)cn4)c(F)cc3c2=O)COC(F)F)c1C(F)(F)F [Example 120] | 1000
32 | CC(C)(O)c1cnc(-c2cc3ccn(C[C@H](F)C[C@H](COC(F)F)Oc4cn[nH]c(=O)c4C(F)(F)F)c(=O)c3cc2F)nc1 [Example 122] | 1.97
33 | O=c1[nH]ncc(N[C@@H](CO)C[C@@H](F)Cn2ccc3cc(-c4ncc(C(F)(F)F)cn4)c(F)cc3c2=O)c1C(F)(F)F [Example 123, 7-fluoro-2-((2R,4R)-2-fluoro-5-hydroxy-4-((6-oxo-5-(trifluoromethyl)-1,6-dihydropyridazin-4-yl)amino)pentyl)-6-(5-(trifluoromethyl)pyrimidin-2-yl)isoquinolin-1(2H)-one] | 16.2
34 | O=c1[nH]ncc(N[C@@H](CO)C[C@@H](F)Cn2ccc3cc(-c4ncc(Cl)cn4)c(F)cc3c2=O)c1C(F)(F)F [Example 124] | 11.1
35 | O=c1[nH]ncc(N[C@@H](CO)C[C@@H](F)Cn2ccc3cc(-c4ncc(C(F)F)cn4)c(F)cc3c2=O)c1C(F)(F)F [Example 125] | 41.2
36 | O=c1[nH]ncc(NC(COC(F)F)C[C@@H](F)Cn2ccc3cc(-c4ncc(C(F)(F)F)cn4)c(F)cc3c2=O)c1C(F)(F)F (stereo partly drawn) [Example 126, 2-[(2R)-5-(difluoromethoxy)-2-fluoro-4-[[6-oxo-5-(trifluoromethyl)-1H-pyridazin-4-yl]amino]pentyl]-7-fluoro-6-[5-(trifluoromethyl)pyrimidin-2-yl]isoquinolin-1-one] | 3.3
37 | Nc1nc(-c2cc3ccn(CC(F)CC(COC(F)F)Nc4cn[nH]c(=O)c4C(F)(F)F)c(=O)c3cc2F)ncc1C(F)F (stereo not drawn) [Example 127] | 6.55
38 | COc1cnc(-c2cc3ccn(CC(F)CC(COC(F)F)Nc4cn[nH]c(=O)c4C(F)(F)F)c(=O)c3cc2F)nc1 (stereo not drawn) [Example 128] | 3.08
39 | CC(C)(O)c1cnc(-c2cc3ccn(CC(F)CC(COC(F)F)Nc4cn[nH]c(=O)c4C(F)(F)F)c(=O)c3cc2F)nc1 (stereo not drawn) [Example 129] | 8.24
40 | O=c1[nH]ncc(NC(COC(F)F)CC(F)Cn2ccc3cc(-c4ncc(C(F)F)cn4)c(F)cc3c2=O)c1C(F)(F)F (stereo not drawn) [Example 130] | 2.24
41 | CC(F)(F)c1cnc(-c2cc3ccn(CC(F)CC(COC(F)F)Nc4cn[nH]c(=O)c4C(F)(F)F)c(=O)c3cc2F)nc1 (stereo not drawn) [Example 131] | 5.34
42 | C[C@@H](C[C@@H](F)CN1CCc2cc(-c3ncc(C(F)(F)F)cn3)c(F)cc2C1=O)Nc1cn[nH]c(=O)c1C(F)(F)F [Example 132, 7-fluoro-2-[(2R,4S)-2-fluoro-4-[[6-oxo-5-(trifluoromethyl)-1H-pyridazin-4-yl]amino]pentyl]-6-[5-(trifluoromethyl)pyrimidin-2-yl]-3,4-dihydroisoquinolin-1-one] | 2.7
